The results in this text go back to patent US8367721B2, “Methods of treating an overweight or obese subject” (Zafgen, Inc., priority 2008, dated 2013).

As a reminder, the EC50 is the concentration giving half of the maximal effect.

Assay [1] has as its system diet-induced obese C57BL/6NTac mice. Kind of assay: 7 day oral weight loss study in diet-induced obese mice (Example 5). The assay is classed as in vivo. Conditions: oral 1.0 mg/kg once a day for 7 days. As for the experimental part:
A weight loss study was conducted in obese mice. The mice in this study were not genetically obese, but prior to and during the study, obesity was induced by a high-fat diet. Twelve week-old C57BL/6NTac mice, maintained on a 60% fat diet prior to and during the study, were separated into seven groups, eight animals per group. Average body weight of the mice was approximately 47 g at the start of the study.
Each of six groups was orally administered 1.0 mg/kg of a compound ([…] compounds B. C, D, E, F and G as disclosed herein), in 10% gelucire in deoinised water. Each of these six groups was administered a different compound. One group was orally administered fumagillin at 1.0 mg/kg (group 201) in 10% gelucire in deoinised water, and one group was administered 10% gelucire in deoinised water (vehicle). Mice received administrations once a day for 7 days.
(Data analyzed by ANCOVA with body weight on Day 1 as covariate followed by multiple tests against vehicle group: *p<0.05; **p<0.01, ***p<0.001.)

Assay [2] has as its system TXN in Cos-1 and 293T cells. Put plainly: FLAG-tagged TXN expression (gel) in transfected Cos-1 and 293T cells. In kind it is cell-based. As for the experimental part: EC50 of fumagillin to increase TXN levels is <10 nM.
In assay [3] the test system is Thioredoxin-1 (TXN) in B16F10 cells. Put plainly: N-terminal chymotryptic fragments of TXN by LC/MS in fumagillin-treated B16F10 cells. In kind it is cell-based. As for the experimental part: B16F10 cells were treated with increasing concentrations of fumagillin. N-terminal chymotryptic fragments of TXN were measured by liquid chromatography/mass spectrometry (LC/MS). […] The EC50 of fumagillin to increase Met-TXN acetylated Met-TXN levels is <10 nM.

Assay [4] concerns C57BL/6 mice conditioned on a high fat diet. Kind of assay: Oral gavage for 10 days in high fat diet mice. The assay is classed as in vivo. To be noted: oral gavage 0.3 or 3 mg/kg daily for 10 days. The text has this:
(§1) Oral administration of the MetAP2 inhibitor fumagillin causes an increase in circulating ketone bodies, as measured by concentration of beta hydroxybutyrate, which indicates an increase in the breakdown of stored fat.

Assay [5] has as its system C57BL/6 mice conditioned on a high-fat diet. Kind of assay: 28 day oral gavage, fat and lean tissue change in high fat diet mice. In kind it is in vivo. To be noted: oral gavage 0.1 or 0.3 mg/kg for 28 days. As for the experimental part:
C57BL/6 mice were conditioned on a low-fat diet (LF), a high fat diet (HF), or a high-fat diet and treated with fumagillin (ZGN-201) administered by oral gavage at doses of 0.1 or 0.3 mg/kg for 28 days. […] To determine whether the weight loss resulted from loss of fat or loss of lean tissue, the percentage change in fat tissue and lean tissue was determined for LF mice, HF mice, HF mice treated with 0.1 mg/kg fumagillin, and HF mice treated with 0.3 mg/kg fumagillin.
Upon histological examination, the studies of treated obese mice show no effect on growth of new blood vessels in growing fat depots and no effect on blood vessel size or density when compared to animals in which weight loss has been induced by simple energy (food) restriction.

For assay [6], the system named is C57BL/6 mice conditioned on a high fat diet. Kind of assay: Diet admixture for 250 days in high fat diet mice. In kind it is in vivo. As for the experimental part: as §1
In addition to showing an increase in beta hydroxybutyrate concentration, C57BL/6 mice conditioned on a high fat diet and treated with fumagillin (ZGN-201) as a diet admixture (1 mg/kg daily for 250 days) also experienced a reduction in body fat by approximately 40 percent (FIG. 6). Once attaining the maximum weight reduction, mice treated daily with 1 mg/kg fumagillin maintained a weight that was 25% less than that of age-matched mice maintained on normal mouse chow diet (lean mice, FIG. 6) for the duration of the experiment.
Adipose tissue in mice fed a high-fat diet show distinctive crown-like structures not seen in lean mice. These crown-like structures were also absent from the adipose tissue of fumagillin-treated mice.

Assay [7] has as its system High fat diet-fed C57BL/6 mice. Put plainly: 14 day body weight and food intake study in high fat diet-fed mice. In kind it is in vivo. As for the experimental part:
High fat diet-fed C57BL/6 mice were treated with 1 mg/kg of the MetAP2 inhibitor fumagillin (ZGN-201, squares) or vehicle (diamonds) for 14 days (FIG. 10). Body weights (left panel) were determined daily, while food intake (right panel) was assessed every other day by measuring the food consumed by each cage of three mice over the two day period. Data shown in FIG. 10 are means±SEM, n=9 animals. […] First, during the initial two to three days of treatment, no overt changes in food intake or body weight are observed. During this time period key changes in MetAP2 substrates occur, including glyceraldehyde-3-phosphate dehydrogenase and thioredoxin (data not shown). Second, the animals enter a period of rapid weight loss that proceeds until essentially all excess fat deposits are consumed. During this second period, fat oxidation is enhanced and food intake is inhibited.
Weight loss following treatment with therapeutically relevant doses of MetAP2 inhibitors stops once animals attain a normal body composition. […] This third phase can be maintained indefinitely provided the drug is continued (see FIG. 10), or presumably can be maintained in practice through other complementary pharmacologic, dietary, or lifestyle interventions.

Setting [8] is: diet admixture 1 mg/kg daily for 250 days.

Regarding `CO[C@@H]1[C@H](OC(=O)N[C@@H](C(N)=O)C(C)C)CC[C@]2(CO2)[C@H]1[C@@]1(C)O[C@@H]1CC=C(C)C` [B], the “body weight change over the course of the 8 days” value in assay [1] is on record as “lost weight”.
On the same count and under the same terms, the same measure for `CO[C@@H]1[C@H](OC(=O)NCCC2CCCN2C)CC[C@]2(CO2)[C@H]1[C@@]1(C)O[C@@H]1CC=C(C)C` (stereo partly drawn) [C]: “lost weight”.
Still for that read-out and setting: as for `CO[C@@H]1[C@H](OC(=O)N[C@@H](C(=O)NCCN2CCCC2)C(C)C)CC[C@]2(CO2)[C@H]1[C@@]1(C)O[C@@H]1CC=C(C)C` [E], the entry is “lost weight”.
For the compound `CO[C@@H]1[C@H](OC(=O)/C=C/C=C/C=C/C=C/C(=O)O)CC[C@]2(CO2)[C@H]1[C@@]1(C)O[C@@H]1CC=C(C)C` [fumagillin], the “body weight change over the course of the 8 days” value in assay [1] is recorded as “lost the most weight”. The “expression of TXN” value in assay [2] (Cos-1 and 293T cells transfected with FLAG-tagged TXN) was “significantly increased”. The 50% effective concentration (EC50) in assay [2] (gel, FIG. 4, read-out: EC50 to increase TXN levels) was under 10 nM. Further, in assay [3] (LC/MS), the “accumulation of N-acetyl TXN(1-4)” value is “significant accumulation” and the “cellular level of TXN containing an intact N-terminal methionine [TXN(1-4)]” value is “significantly increased”. The EC50 in assay [3] (Mus musculus, B16-F10, read-out: EC50 to increase Met-TXN acetylated Met-TXN levels) is under 10 nM. For the same compound, in assay [4], the beta hydroxybutyrate concentrations entry is given as “increase” and the “free fatty acid concentration” value is “without an increase”. In addition, in assay [5], the body weight result is given as “reduction in body weight down to the level of low fat fed mice”, the reduction in fat is 40-50% and the “reduction in lean tissue” value is listed as 5-10%. In addition, the “maintained weight less than that of age-matched lean mice on normal chow” value in assay [6] (1 mg/kg daily, after maximum weight reduction) came to 25%. Moreover, in assay [6] (1 mg/kg, 250 days), the adipocyte size result was “more similar to that of age-matched lean mice”; the “crown-like structures in adipose tissue” value is reported as “absent”; the “fasted glucose and insulin levels, insulin-glucose product” value is “more similar to that of age-matched lean mice”; the “retroperitoneal fat pad weight” value is on record as “more similar to that of age-matched lean mice”. Moreover, the “size and appearance of epididymal fat, peri-renal fat and liver” value in assay [6] (1 mg/kg, 250 days) is “more similar to that of age-matched lean mice”. In addition, in assay [6] (setting [8]), the “hydroxybutyrate concentration at longer time points” value is “Increased hydroxybutyrate concentration persisted” and the “reduction in body fat” value is on record as “approximately 40%”. Also, the “food intake during period of rapid weight loss” value in assay [7] (1 mg/kg for 14 days, second phase) is “inhibited”. Further, the “food intake after weight loss nadir” value in assay [7] (1 mg/kg, third phase) is reported as “returns to normal levels”.
